≈ marks a conversion by molar mass, not a printed value.

We go through seven compounds from ChEMBL document CHEMBL1126134, “7,8-Dihydro-8-ethyl-2-(3-noradamantyl)-4-propyl-1H-imidazo[2,1-i]purin-5(4H)-one: a potent and water-soluble adenosine A1 antagonist” (J Med Chem, 1992).

A short description of data set [1]: Solubility was measured in saline. Type of data set: physicochemical.
A further data set deals with Adenosine A2 receptor (Homo sapiens, UniProt P29275+P29274). Briefly: Binding affinity for adenosine A2 receptor using N-[3H]-ethyladenosin-5''-uronamide in guinea pig forebrain membranes.
Another data set in a line: physchem. To be noted: water.
Data set [2] deals with T1, Adenosine receptor A1 (Cavia porcellus, UniProt P47745).
T1 sequence (P47745 whole entry): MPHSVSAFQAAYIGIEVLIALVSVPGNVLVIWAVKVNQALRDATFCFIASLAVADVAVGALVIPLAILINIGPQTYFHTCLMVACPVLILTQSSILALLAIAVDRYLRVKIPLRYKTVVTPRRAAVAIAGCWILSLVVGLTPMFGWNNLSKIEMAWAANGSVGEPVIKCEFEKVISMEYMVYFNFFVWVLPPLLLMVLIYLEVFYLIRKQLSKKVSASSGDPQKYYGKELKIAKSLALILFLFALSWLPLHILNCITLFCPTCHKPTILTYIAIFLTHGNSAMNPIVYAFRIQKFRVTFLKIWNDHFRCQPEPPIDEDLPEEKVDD
It counts as cell membranes, Brain membranes.

Data set [3] concerns the target T1, Adenosine receptor A1. Type of data set: cell membranes, Brain membranes. The source holds these as a separate data set.

Description for physchem: Solubility of the compound(10 mg) was measured in water(2.5 mL) at 20 degree celsius for 1 hr

In data set [1], `CCCn1c(=O)c2nc(C(C3CC3)C3CC3)[nH]c2n(CCC)c1=O` had a solubility of 5.8 µg/mL (≈ 17.6 µM). Further, the Ki on Adenosine A2 receptor came to 430 nM. Moreover, in the data set “physchem”, the solubility at 1 h came out at 8.5 µg/mL (≈ 25.7 µM).
`CCCN1C(=O)N2C[C@H](CC)N=C2c2[nH]c(C34CC5CC(CC3C5)C4)nc21` came in with a Ki at Adenosine receptor A1 [2] of 120 nM. Besides, the concentration in solution in “physchem” (solubility at 1 h) was 2900 µg/mL (≈ 7890 µM).
`CCCn1c(=O)c2[nH]c(C3CCC(=O)C3)nc2n(CCC)c1=O` (stereo not given) came in with a solubility in data set [1] of 200 µg/mL (≈ 628 µM). The concentration in solution in “physchem” (solubility at 1 h) was 220 µg/mL (≈ 691 µM).
In “physchem”, `CCCn1c(=O)c2[nH]c(C3CCCC3)nc2n(CCC)c1=O` [1,3-DIPROPYL-8-CYCLOPENTYLXANTHINE [DPCPX]] came in with a solubility at 1 h of 3.3 µg/mL (≈ 10.8 µM).
For `CCCN1C(=O)N2C[C@@H](CC)N=C2c2[nH]c(C34CC5CC(CC3C5)C4)nc21`, on Adenosine receptor A1 [2], the affinity corresponds to a Ki of 2.7 nM. For the same compound, in the data set “physchem”, the solubility at 1 h was determined as 3000 µg/mL (≈ 8160 µM).
Take `CCCn1c(=O)c2[nH]c(C34CC5CC(CC3C5)C4)nc2n(CCC)c1=O` [ROLOFYLLINE]: the concentration in solution in data set [1] (solubility) came to 0.6 µg/mL (≈ 1.68 µM). This compound also registered a solubility at 1 h in the data set “physchem” of 0.5 µg/mL (≈ 1.4 µM).
Regarding `CCCN1C(=O)N2CC(CC)N=C2c2[nH]c(C34CC5CC(CC3C5)C4)nc21` (stereo not given), the solubility in data set [1] turned out to be 990 µg/mL (≈ 2690 µM). This compound also registered an inhibition constant (Ki) at Adenosine receptor A1 [3] of 5.7 nM. Moreover, in “physchem”, the solubility at 1 h was found to be 3200 µg/mL (≈ 8710 µM).

As usually defined, the solubility is the concentration that dissolves in the medium under given conditions. The low end stands for a poorly soluble substance, the high end for a readily soluble substance. In general, Ki refers to a measure of affinity in units of concentration, obtained from inhibition or displacement. Read a low Ki as a stronger hold on the target.
